Measured values from publication PMC7570497, “Design, Synthesis and Functional Analysis of Cyclic Opioid Peptides with Dmt-Tic Pharmacophore” (Molecules, 2020).
Bridge positions count the residues as written; N and C are the ends. Square brackets hold non-standard residues; d marks the D form. Peptide text beside a SMILES is read from it. Phe(2,4-F2) = N[C@@H](Cc1ccc(F)cc1F)C(=O)O; d2Nal = N[C@H](Cc1ccc2ccccc2c1)C(=O)O; Dmt = Cc1cc(O)cc(C)c1C[C@H](N)C(=O)O; Tic = O=C(O)[C@@H]1Cc2ccccc2CN1; dDap = NC[C@@H](N)C(=O)O

Experiments:
human KOR = biological target: T1, human KOR (Homo sapiens, UniProt P41145); assay: Calcium mobilization assay, agonist mode, KOR; format: cell-based; conditions: for KOR pEC50 (CL95%) / KOR α ± SEM (efficacy, intrinsic activity): CHO cells co-expressing human KOR and Gαqi5, inactive = inactive up to 10 μM, n ≥ 5; for KOR pEC50 (CL95%): Fluo-4 AM, reference agonist dynorphin A, mean ± SEM; for KOR α ± SEM (efficacy, intrinsic activity): ratio of peptide Emax to Emax of dynorphin A
T1 construct: expressed in transfected cells; host or cells: CHO cells (gift from Prof. Girolamo Calo, Ferrara University)
T1 sequence (P41145 whole entry): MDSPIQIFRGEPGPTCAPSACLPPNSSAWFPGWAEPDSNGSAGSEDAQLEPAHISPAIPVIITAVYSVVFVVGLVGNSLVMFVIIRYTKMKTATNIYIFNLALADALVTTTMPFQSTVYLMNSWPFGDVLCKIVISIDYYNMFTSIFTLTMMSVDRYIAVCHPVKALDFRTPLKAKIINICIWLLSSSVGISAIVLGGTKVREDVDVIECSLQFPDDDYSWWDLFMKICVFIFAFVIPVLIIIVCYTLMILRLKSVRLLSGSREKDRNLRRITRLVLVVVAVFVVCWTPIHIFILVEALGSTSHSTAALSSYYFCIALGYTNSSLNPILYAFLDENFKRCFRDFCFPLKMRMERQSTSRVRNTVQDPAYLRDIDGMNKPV
Procedure: (§1) Calcium mobilization assay was performed as reported previously. CHO cells stably co-expressing human MOR or KOR and the C-terminally modified Gαqi5 and CHO cells co-expressing DOR and the GαqG66Di5 protein were used for the tests. Briefly, cells incubated for 24 h in 96-well black, clear-bottom plates were loaded with medium supplemented with probenecid (2.5 mmol/L), calcium-sensitive fluorescent dye Fluo-4 AM (3 μmol/L) and pluronic acid (0.01%) and kept at 37 °C for 30 min. Following aspiration of the loading solution and a washing step, serial dilutions of peptide stock solutions were added. Cells without peptides were treated as the control. […] Ligand efficacy was expressed as intrinsic activity (α) calculated as a ratio of the peptide Emax to Emax of the standard agonist.

DOR [1] = biological target: T2, DOR (Homo sapiens, UniProt P41143); assay: Calcium mobilization assay, antagonism of DPDPE at DOR
T2 sequence (P41143 whole entry): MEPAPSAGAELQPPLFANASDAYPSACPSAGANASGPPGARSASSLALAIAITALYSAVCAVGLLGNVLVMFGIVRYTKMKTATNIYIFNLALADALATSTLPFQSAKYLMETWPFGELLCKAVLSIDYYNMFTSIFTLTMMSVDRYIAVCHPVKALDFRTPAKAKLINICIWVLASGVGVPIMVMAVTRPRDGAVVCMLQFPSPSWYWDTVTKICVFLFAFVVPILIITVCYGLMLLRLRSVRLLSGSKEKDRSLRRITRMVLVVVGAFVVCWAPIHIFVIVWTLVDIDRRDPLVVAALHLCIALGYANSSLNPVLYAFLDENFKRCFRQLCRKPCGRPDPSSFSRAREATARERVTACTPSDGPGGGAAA

human MOR = biological target: T3, human MOR (Homo sapiens, UniProt P35372); assay: Calcium mobilization assay, agonist mode, MOR; format: cell-based; conditions: for MOR α ± SEM (efficacy, intrinsic activity): ratio of peptide Emax to Emax of dermorphin
T3 construct: expressed in transfected cells; host or cells: CHO cells (gift from Prof. Girolamo Calo, Ferrara University)
T3 sequence (P35372 whole entry): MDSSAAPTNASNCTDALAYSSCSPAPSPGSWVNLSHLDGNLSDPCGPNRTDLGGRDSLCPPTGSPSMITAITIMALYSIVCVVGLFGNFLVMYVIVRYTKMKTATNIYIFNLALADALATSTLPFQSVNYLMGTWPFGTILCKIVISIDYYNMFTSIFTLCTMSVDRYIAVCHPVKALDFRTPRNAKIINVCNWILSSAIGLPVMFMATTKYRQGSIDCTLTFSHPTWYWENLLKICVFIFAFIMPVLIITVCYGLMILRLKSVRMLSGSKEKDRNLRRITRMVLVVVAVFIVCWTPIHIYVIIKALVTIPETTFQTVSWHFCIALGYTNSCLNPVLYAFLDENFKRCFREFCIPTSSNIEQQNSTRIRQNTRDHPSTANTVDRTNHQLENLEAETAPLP

DOR [2] = biological target: T2, DOR; assay: Calcium mobilization assay, agonist mode, DOR; format: cell-based; design: expressed in transfected cells; host or cells: CHO cells (gift from Prof. Girolamo Calo, Ferrara University); conditions: CHO cells co-expressing DOR and GαqG66Di5, inactive = inactive up to 10 μM, n ≥ 5; for DOR pEC50 (CL95%): Fluo-4 AM, reference agonist DPDPE, mean ± SEM; for DOR α ± SEM (efficacy, intrinsic activity): ratio of peptide Emax to Emax of DPDPE
Procedure: as §1

[3] = Enzymatic stability in rat brain homogenate; format: in vitro ADME; conditions: rat brain homogenate 10 mg protein/mL in Tris.HCl 50 mM pH 7.4; 100 μL homogenate + 100 μL peptide (0.5 mM); 37 °C; 60 min; HPLC area %; three independent experiments; read-out: Enzymatic Stability Area [%]: amount of peptide remained after 60 min incubation with rat brain homogenate
Procedure: The metabolic stability of analogs was assessed in the presence of the rat brain homogenate. All new cyclopeptides remained almost intact after 60 min incubation with the homogenate (Table 1).
Enzymatic degradation studies of the analogs were carried out using rat brain homogenate (10 mg protein/mL). To prepare, the homogenate rat brains were isolated, pooled and homogenized in a Polytron with 20 volumes of Tris.HCl (50 mM, pH 7.4), and the homogenate was then stored at −80°C until use. Aliquots of the homogenate (100 μL) were incubated with 100 μL of peptide (0.5 mM) over 0, 7.5, 15, 22.5, 30, and 60 min at 37 °C, in a final volume of 200 μL. The reaction was stopped at the required time by placing the tube on ice and acidifying the content with 20 μL of HCl (1 M). The aliquots were centrifuged at 20,000× g for 10 min at 4 °C. The supernatants were filtered over Millex-GV syringe filters (Millipore, Billerica, MA, USA) and analyzed by HPLC on a Vydac C18 column (4.6 mm × 250 mm, 5 μm,), using the solvent system of 0.1% TFA in water (A) and 80% acetonitrile in water containing 0.1% TFA (B) and a linear gradient of 0–100% B over 25 min. Three independent experiments for each assay were carried out. The amount of remaining peptide (area %) was calculated.

[4] = LC-MS elution order in reverse-phase chromatography to estimate lipophilicity; format: physicochemical; conditions: LC-MS (XIC); Aeris Peptide XB-C18 and Kinetex Biphenyl columns, identical order on both; gradient 5–80% acetonitrile in water in 10 min, 0.1% HCOOH
From the text: The lipophilicity of compounds is often a useful characteristic allowing one to predict or rationalize their interactions with a given receptor [40]. Here, the liquid chromatography–mass spectrometry (LC-MS) procedure was applied to study the elution order of analogs in the reverse-phase chromatography to estimate their lipophilicity. The mixture of peptides 1–6 was run in the same experimental conditions on two types of columns, an Aeris Peptide C18 column and a novel biphenyl stationary phase HPLC column. The biphenyl column can be complementary to a C18 column, as it can engage in π–π interactions with the eluted compound [41]. As expected, peptides were more retained on the biphenyl column, due to the π stacking interactions of their aromatic rings with the solid support.
Figure 1 LC-MS chromatograms (extracted ion currents (XIC)) for peptides 1–6. Panel (A): Aeris Peptide XB-C18 column. Panel (B): Kinetex Biphenyl column. […]
Protected amino acids were purchased from Bachem AG (Bubendorf, Switzerland). p-Methylbenzhydrylamine (MBHA) resin was obtained from Novabiochem (San Diego, CA, USA). Semi-preparative and analytical RP-HPLC was performed using Waters Breeze instrument (Milford, MA, USA) with the dual absorbance detector (Waters 2487) on a Vydac C18 column (22 × 250 mm, 10 μm) and Vydac C18 column (4.6 × 250 mm, 5 μm), respectively. […]

[5] = CHO cells co-expressing human MOR and Gαqi5, inactive = inactive up to 10 μM, n ≥ 5

Structure (SMILES) | KOR pEC50 (CL95%) (human KOR) | KOR α ± SEM (efficacy, intrinsic activity) (human KOR) | EC50 (human KOR; read-out: KOR pEC50 (CL95%) (converted)) | Kb (DOR [1]) | EC50 (human MOR) | MOR α ± SEM (efficacy, intrinsic activity) (human MOR; [5]) | DOR pEC50 (CL95%) (DOR [2]) | DOR α ± SEM (efficacy, intrinsic activity) (DOR [2]) | remaining at 1 h, 0.25 mM [3] | MOR pEC50 (CL95%) (human MOR; CHO cells co-expressing human MOR and Gαqi5, Fluo-4 AM, reference agonist dermorphin, inactive = inactive up to 10 μM, mean ± SEM, n ≥ 5) | Elution order in reverse-phase chromatography (lipophilicity) [4]
CC1(C)SSC(C)(C)[C@@H](NC(=O)[C@@H](N)Cc2ccc(O)cc2)C(=O)NCC(=O)N[C@@H](Cc2ccccc2)C(=O)N[C@H]1C(=O)O [DPDPE, reference compound] | inactive | inactive | – | – | – | – | – | – | – | – | –
Cc1cc(O)cc(C)c1C[C@H](N)C(=O)N1Cc2ccccc2C[C@H]1C(=O)N[C@@H]1CCCCNC(=O)C[C@@H](C(N)=O)NC(=O)[C@H](Cc2ccccc2)NC(=O)[C@H](Cc2ccccc2)NC1=O [compound 1, Dmt-Tic-c[D-Lys-Phe-Phe-Asp]NH2] (H-[Dmt][Tic][dK]FFD-NH2; lactam 3-6) | – | 0.20 ± 0.06 | 490 nM | 42.7 nM | 661 nM | 0.15 ± 0.02 | inactive | inactive | 97.88 ± 0.83% | – | –
Cc1cc(O)cc(C)c1C[C@H](N)C(=O)N1Cc2ccccc2C[C@H]1C(=O)N[C@@H]1CCCCNC(=O)C[C@@H](C(N)=O)NC(=O)[C@@H](Cc2ccc3ccccc3c2)NC(=O)[C@H](Cc2ccccc2)NC1=O [compound 2, Dmt-Tic-c[D-Lys-Phe-D-2Nal-Asp]NH2] (H-[Dmt][Tic][dK]F[d2Nal]D-NH2; lactam 3-6) | inactive | inactive | – | 28.2 nM | 617 nM | 0.37 ± 0.05 | inactive | inactive | 98.17 ± 0.23% | – | –
Cc1cc(O)cc(C)c1C[C@H](N)C(=O)N1Cc2ccccc2C[C@H]1C(=O)N[C@@H]1CCCCNC(=O)C[C@@H](C(N)=O)NC(=O)[C@H](Cc2ccc(F)cc2F)NC(=O)[C@H](Cc2ccccc2)NC1=O [compound 3, Dmt-Tic-c[D-Lys-Phe-2,4F2-Phe-Asp]NH2] (H-[Dmt][Tic][dK]F[Phe(2,4-F2)]D-NH2; lactam 3-6) | – | – | – | – | – | – | – | – | 95.19 ± 0.86% | – | –
Cc1cc(O)cc(C)c1C[C@H](N)C(=O)N1Cc2ccccc2C[C@H]1C(=O)N[C@@H]1CNC(=O)C[C@@H](C(N)=O)NC(=O)[C@H](Cc2ccccc2)NC(=O)[C@H](Cc2ccccc2)NC1=O [compound 4, Dmt-Tic-c[D-Dap-Phe-Phe-Asp]NH2] (H-[Dmt][Tic][dDap]FFD-NH2; lactam 3-6) | inactive | inactive | – | 2.45 nM | – | inactive | inactive | inactive | 96.21 ± 0.89% | inactive | –
Cc1cc(O)cc(C)c1C[C@H](N)C(=O)N1Cc2ccccc2C[C@H]1C(=O)N[C@@H]1CCCCNC(=O)C[C@@H](C(N)=O)NC(=O)[C@H](Cc2ccccc2)NC1=O [compound 5, Dmt-Tic-c[D-Lys-Phe-Asp]NH2] (H-[Dmt][Tic][dK]FD-NH2; lactam 3-5) | inactive | inactive | – | 0.525 nM | 813 nM | 0.3 ± 0.03 | inactive | inactive | 96.76 ± 0.91% | – | least lipophilic
Cc1cc(O)cc(C)c1C[C@H](NC(=O)[C@@H]1Cc2ccccc2CN1C(=O)[C@@H]1CC(=O)NCCCC[C@@H](NC(=O)[C@@H]2Cc3ccccc3CN2C(=O)[C@@H](N)Cc2c(C)cc(O)cc2C)C(=O)N[C@@H](Cc2ccccc2)C(=O)N1)C(N)=O [compound 6, Dmt-Tic-c[D-Lys-Phe-Asp]-Tic-Dmt-NH2] (H-[Dmt][Tic][dK]FD[Tic][Dmt]-NH2; lactam 3-5) | inactive | inactive | – | 1.1 nM | 331 nM | 0.17 ± 0.20 | inactive | inactive | 97.6 ± 1.2% | – | –
C[C@@H](NC(=O)[C@@H](N)Cc1ccc(O)cc1)C(=O)N[C@@H](Cc1ccccc1)C(=O)NCC(=O)N[C@@H](Cc1ccc(O)cc1)C(=O)N1CCC[C@H]1C(=O)N[C@@H](CO)C(N)=O [dermorphin, reference compound] | inactive | inactive | – | – | – | 1.00 | inactive | inactive | – | – | –
CC[C@H](C)[C@H](NC(=O)[C@H](CCCNC(=N)N)NC(=O)[C@H](CCCNC(=N)N)NC(=O)[C@H](CC(C)C)NC(=O)[C@H](Cc1ccccc1)NC(=O)CNC(=O)CNC(=O)[C@@H](N)Cc1ccc(O)cc1)C(=O)N[C@@H](CCCNC(=N)N)C(=O)N1CCC[C@H]1C(=O)N[C@@H](CCCCN)C(=O)N[C@@H](CC(C)C)C(=O)N[C@@H](CCCCN)C(=O)N[C@@H](Cc1c[nH]c2ccccc12)C(=O)N[C@@H](CC(=O)O)C(=O)N[C@@H](CC(N)=O)C(=O)N[C@@H](CCC(N)=O)C(=O)O [dynorphin A, reference compound] | – | – | – | – | – | – | – | 0.99 ± 0.04 | – | – | –
